For one assay, the system named is HGFIN mRNA in HL-60. Briefly: Northern analysis of HGFIN mRNA in differentiated HL-60. It is filed as cell-based. The note with it: HL-60 differentiated to monocytes (TPA) or granulocytes (DMSO). As to the method: (§1) Cell Differentiation. Cell differentiation was performed with a myelomonocytic cell line, HL-60, or bone marrow mononuclear cells (BMNC). HL-60 cells were chemically differentiated with TPA and DMSO for monocytes and granulocytes respectively (Miura, et al. (2000) supra; Hegde, et al. (1999) Blood 94:1578-1589). BMNC were isolated from bone marrow aspirate of healthy donors using FICOLL HYPAQUE density gradient.
Northern Analysis. Northern analysis for steady state HGFIN mRNA was performed as described (Rameshwar, et al. (1997) J. Immunol. 158:3417-3424). Total RNA was extracted from the experimental cells and 10 μg from each was separated in 1.2% agarose. RNA was transferred to nylon membranes (S & S NYTRAN, Keene, N.H.) and then hybridized with [α-^32P]-dATP-labeled cDNA probes specific for HGFIN or Id2. Membranes were stripped and then reprobed with cDNA for 18S rRNA. Probes were randomly labeled with [α-^32P]-dATP, 3000 Ci/mM, (Dupont/NEN, Boston, Mass.) using the PRIME-IT II random primer kit (Stratagene). […]
HGFIN mRNA was studied in differentiated and undifferentiated HL-60 cells to determine if the expression of this gene was limited to normal bone marrow progenitors. […] Similar to normal progenitors, HGFIN mRNA was detected in differentiated HL-60. […]

A further assay concerns HGFIN mRNA in PBMC. The assay can be described thus: Northern analysis of HGFIN mRNA in stimulated PBMC. In kind it is cell-based, human. Particulars: 1 μg/ml LPS. As to the method: Cell Stimulation. Peripheral blood mononuclear cells (PBMC) were resuspended in RPMI 1640 containing 2% FCS at 10^6/ml. Cell suspension, 10 ml, was stimulated with 1 μg/ml of LPS. bone marrow stroma was stimulated in sera-free α-MEM (Sigma) with the following: 10 μg/ml SCF, 5 ng/ml IL-11, 5 U/ml […], 5 ng/ml […], 25 ng/ml NGF and […]. Dose-response curves with slot blots for HGFIN mRNA determined the optimal concentration of each stimulus. During stromal cell stimulation, culture media were supplemented with insulin-transferring-selenium-A (Life Technologies, Grand Island, N.Y.). In both types of cells, controls included parallel cultures in similar media. At 8 hours and 16 hours, total RNA was extracted from each experimental point and control and then analyzed by northern analyses for HGFIN mRNA.
Northern Analysis. Northern analysis for steady state HGFIN mRNA was performed as described (Rameshwar, et al. (1997) J. Immunol. 158:3417-3424). Total RNA was extracted from the experimental cells and 10 μg from each was separated in 1.2% agarose. […]
As differentiated immune cells express HGFIN, studies were performed to determining if HGFIN was also expressed when these differentiated cells were activated. […] Consistent with HGFIN expression in PBMC, HGFIN mRNA was detected in the unstimulated PBMC.

A further assay concerns Oct4 breast cancer cells. Briefly: Carboplatin treatment of tumors from Oct4 breast cancer cells in mice. In kind it is in vivo, athymic BALB/c mice. As to the method: As discussed above, female athymic BALB/c mice (4 weeks) were obtained from Harlan Laboratories (Somerville, N.J.) and housed in a laminar flow hood at an AAALAC-accredited facility. The use of mice was approved by the Institutional Animal Care and Use Committee, New Jersey Medical School (Newark, N.J.).
Mice were inoculated with Oct4 cells where HGFIN expression was knocked down with siRNA. The cells were injected in a total volume of 0.2 mL subcutaneously in the dorsal flanks. Tumors were monitored daily and measured in two dimensions with a caliper and volume was calculated using the formula V=πr^2h, where r=radius and h=height. Animal were injected with carboplatin (50 mg/kg) on day 0 and day 3 of the test period. Tumors were palpated and tumor volume was measured every other day for two weeks (i.e., days 0, 2, 4, 6, 8, 10, 12 and 14).

A further assay has as its system HGFIN mRNA in BMNC. The assay can be described thus: Northern analysis of HGFIN mRNA in BMNC cultured with M-CSF or G-CSF. In kind it is cell-based, human. As to the method: as §1
(§2) Further, BMNC cells were differentiated with M-CSF or G-CSF (500 U/ml for each) to monocytes and granulocytes, respectively. Undifferentiated cells were cultured in parallel with only media. Culture media were replaced at two-day intervals until cytochemical staining determined that >90% of the cells were differentiated. At this time, cell differentiation was terminated and the cells analyzed by northern analyses for Id2 and HGFIN mRNA, and by immunoblot for Id2 protein. For HL-60 cultures, cytochemical staining was performed after three days with 100-200 cells. Beginning at day 5, cells from cultures with BMNC were stained and daily thereafter. Neutrophil and monocyte staining were performed with kits specific for 2-naphthyl-acetate esterase and naphthol AS-D chloroacetate esterase, respectively.
Northern Analysis. Northern analysis for steady state HGFIN mRNA was performed as described (Rameshwar, et al. (1997) J. Immunol. 158:3417-3424). Total RNA was extracted from the experimental cells and 10 μg from each was separated in 1.2% agarose. RNA was transferred to nylon membranes (S & S NYTRAN, Keene, N.H.) and then hybridized with [α-^32P]-dATP-labeled cDNA probes specific for HGFIN or Id2. Membranes were stripped and then reprobed with cDNA for 18S rRNA. Probes were randomly labeled with [α-^32P]-dATP, 3000 Ci/mM, (Dupont/NEN, Boston, Mass.) using the PRIME-IT II random primer kit (Stratagene). The membrane was placed in a PHOSPHOIMAGER cassette (Molecular Dynamics, Sunnyvale, Calif.) and then scanned at different times beginning at 6 hours to 24 hours on a PHOSPHOIMAGER (Molecular Dynamics). Negative results were not attributed to the lack of total RNA on the membrane since each was hybridized with a cDNA probe for 18S rRNA.
Since the HGFIN cDNA was isolated from bone marrow cell subsets, bone marrow and PB mononuclear cells were screened using northern analyses to study the expression of HGFIN. […] After the cells were >90% differentiated to monocytes and neutrophils, cells were analyzed for the expression of HGFIN mRNA by northern analyses.
To verify that the expression of HGFIN was not due to activation by the two cytokines, northern analyses were performed with BMNC cultured with M-CSF or G-CSF and then analyzed for HGFIN mRNA before the cells were differentiated.

A further assay deals with Id2 in BMNC. Briefly: Id2 protein in differentiated BMNC. In kind it is cell-based, human. As to the method: as §2, with “Neutrophil and monocyte staining were performed with kits specific for 2-naphthyl-acetate esterase and naphthol AS-D chloroacetate esterase, respectively.” left out
Western Blots. […] Extracts were centrifuged at 10,000 g for 10 minutes and then determined for total protein concentration using the BIO-RAD Protein Assay kit (BIO-RAD Laboratories, Hercules, Calif.). Extracts (15 Vig) were analyzed by western blot for Id2 protein as described (Rameshwar, et al. (2000) J. Immunol. 165:2271-2277). […] Alk Phos activity was detected with BCIP/NBT substrate System (Kirkeguard & Perry Laboratories, Gaithersburg, Md.). […]
Northern blots were performed in four experiments, each with a different donor. […] However in undifferentiated BMNC (cultured in media alone), Id2 mRNA was detected in each of the four bone marrow donors. […]

Where [1] appears, read: BMNC >90% differentiated to monocytes or neutrophils.
The mark [2] stands for this setting: BMNC cultured with cytokine, before the cells were differentiated.

As for 12-0-tetradecanoylphorbol diester [TPA], the “HGFIN mRNA” value in the assay with HGFIN mRNA in HL-60 is “detected”.

Take lipopolysaccharide [LPS]: the “steady state HGFIN mRNA” value is “no difference” with HGFIN mRNA in PBMC (8 hours) and “down-regulated” in the assay on HGFIN mRNA in PBMC (16 hours).

In the case of `C[S+](C)[O-]` [DMSO, dimethylsulfoxide], the “HGFIN mRNA” value in the assay on HGFIN mRNA in HL-60 is “detected”.

As to `N.N.O=C([O-])C1(C(=O)[O-])CCC1.[Pt+2]` [carboplatin], the “tumor cell volume vs before carboplatin treatment” value in the assay with Oct4 breast cancer cells (50 mg/kg, two weeks after second injection) is “statistically significant decreases”. The “sensitivity of tumors to carboplatin” value in the assay on Oct4 breast cancer cells (HGFIN knocked down with siRNA, 50 mg/kg day 0 and day 3, two weeks after second injection) was “more sensitive”.

B1: M-CSF: macrophage colony-stimulation factor (protein, UniProt P09603 33-554, looked up)
Macrophage colony-stimulating …: EEVSEYCSHMIGSGHLQSLQRLIDSQMETSCQITFEFVDQEQLKDPVCYLKKAFLLVQDIMEDTMRFRDNTPNAIAIVQLQELSLRLKSCFTKDYEEHDKACVRTFYETPLQLLEKVKNVFNETKNLLDKDWNIFSKNCNNSFAECSSQDVVTKPDCNCLYPKAIPSSDPASVSPHQPLAPSMAPVAGLTWEDSEGTEGSSLLPGEQPLHTVDPGSAKQRPPRSTCQSFEPPETPVVKDSTIGGSPQPRPSVGAFNPGMEDILDSAMGTNWVPEEASGEASEIPVPQGTELSPSRPGGGSMQTEPARPSNFLSASSPLPASAKGQQPADVTGTALPRVGPVRPTGQDWNHTPQKTDHPSALLRDPPEPGSPRISSLRPQGLSNPSTLSAQPQLSRSHSSGSVLPLGELEGRRSTRDRRSPAEPEGGPASEGAARPLPRFNSVPLTDTGHERQSEGSFSPQLQESVFHLLVPSVILVLLAVGGLLFYRWRRRSHQEPQRADSPLEQPEGSPLTQDDRQVELPV
Take B1: the “HGFIN mRNA” value is reported as “detectable” with HGFIN mRNA in BMNC (setting [1]) and “no detectable HGFIN mRNA” with HGFIN mRNA in BMNC (setting [2]). Besides, the “band for Id2 protein” value with Id2 in BMNC is given as “very light to undetectable”.

B2: G-CSF: granulocyte colony-stimulation factor (protein, UniProt P09919 31-207, looked up)
Granulocyte …: TPLGPASSLPQSFLLKCLEQVRKIQGDGAALQEKLVSECATYKLCHPEELVLLGHSLGIPWAPLSSCPSQALQLAGCLSQLHSGLFLYQGLLQALEGISPELGPTLDTLQLDVADFATTIWQQMEELGMAPALQPTQGAMPAFASAFQRRAGGVLVASHLQSFLEVSYRVLRHLAQP
Take B2: the “HGFIN mRNA” value is “detectable” in the assay with HGFIN mRNA in BMNC (setting [1]) and “no detectable HGFIN mRNA” in the assay on HGFIN mRNA in BMNC (setting [2]). The “band for Id2 protein” value in the assay with Id2 in BMNC was “very light to undetectable”.

The values above are taken from patent US8383806B2, “Method of reversing carboplatin resistance by inhibition of HGFIN” (University of Medicine and Dentistry of New Jersey, priority 2000, dated 2013).
